Test results reported in ChEMBL document CHEMBL4507298 (2021).

Assays:
[1] = target: Prostaglandin G/H synthase 2 (Homo sapiens) (UniProt P35354); assay: COX2 (h) CEREP ligand profiling; details: Compound concentration 10.0 uM
[2] = target: Sodium-dependent dopamine transporter (Homo sapiens) (UniProt Q01959); assay: DA transporter (h) CEREP ligand profiling; details: Compound concentration 10.0 uM
[3] = target: Tyrosine 3-monooxygenase (Homo sapiens) (UniProt P07101); assay: TH CEREP ligand profiling; details: Compound concentration 10.0 uM
[4] = target: Myosin light chain kinase, smooth muscle (Homo sapiens) (UniProt Q15746); details: Compound concentration 1000.0 nM
[5] = target: Serine/threonine-protein kinase 32A (Homo sapiens) (UniProt Q8WU08); details: Compound concentration 1000.0 nM
Serine/threonine-protein kinase 32A (Homo sapiens), sequence (Q8WU08 whole entry): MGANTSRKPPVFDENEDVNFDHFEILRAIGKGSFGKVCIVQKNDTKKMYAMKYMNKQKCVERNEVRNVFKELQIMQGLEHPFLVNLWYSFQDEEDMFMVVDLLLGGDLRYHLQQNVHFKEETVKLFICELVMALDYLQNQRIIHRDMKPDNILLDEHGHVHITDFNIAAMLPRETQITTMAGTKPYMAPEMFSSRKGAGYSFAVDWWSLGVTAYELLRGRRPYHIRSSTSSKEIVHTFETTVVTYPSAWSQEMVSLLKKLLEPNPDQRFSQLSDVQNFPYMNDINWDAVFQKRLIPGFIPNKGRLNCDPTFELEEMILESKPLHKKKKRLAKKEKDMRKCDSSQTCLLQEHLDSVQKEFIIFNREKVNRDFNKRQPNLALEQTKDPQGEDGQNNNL

Myosin light chain kinase, smooth muscle (Homo sapiens), sequence (Q15746 whole entry): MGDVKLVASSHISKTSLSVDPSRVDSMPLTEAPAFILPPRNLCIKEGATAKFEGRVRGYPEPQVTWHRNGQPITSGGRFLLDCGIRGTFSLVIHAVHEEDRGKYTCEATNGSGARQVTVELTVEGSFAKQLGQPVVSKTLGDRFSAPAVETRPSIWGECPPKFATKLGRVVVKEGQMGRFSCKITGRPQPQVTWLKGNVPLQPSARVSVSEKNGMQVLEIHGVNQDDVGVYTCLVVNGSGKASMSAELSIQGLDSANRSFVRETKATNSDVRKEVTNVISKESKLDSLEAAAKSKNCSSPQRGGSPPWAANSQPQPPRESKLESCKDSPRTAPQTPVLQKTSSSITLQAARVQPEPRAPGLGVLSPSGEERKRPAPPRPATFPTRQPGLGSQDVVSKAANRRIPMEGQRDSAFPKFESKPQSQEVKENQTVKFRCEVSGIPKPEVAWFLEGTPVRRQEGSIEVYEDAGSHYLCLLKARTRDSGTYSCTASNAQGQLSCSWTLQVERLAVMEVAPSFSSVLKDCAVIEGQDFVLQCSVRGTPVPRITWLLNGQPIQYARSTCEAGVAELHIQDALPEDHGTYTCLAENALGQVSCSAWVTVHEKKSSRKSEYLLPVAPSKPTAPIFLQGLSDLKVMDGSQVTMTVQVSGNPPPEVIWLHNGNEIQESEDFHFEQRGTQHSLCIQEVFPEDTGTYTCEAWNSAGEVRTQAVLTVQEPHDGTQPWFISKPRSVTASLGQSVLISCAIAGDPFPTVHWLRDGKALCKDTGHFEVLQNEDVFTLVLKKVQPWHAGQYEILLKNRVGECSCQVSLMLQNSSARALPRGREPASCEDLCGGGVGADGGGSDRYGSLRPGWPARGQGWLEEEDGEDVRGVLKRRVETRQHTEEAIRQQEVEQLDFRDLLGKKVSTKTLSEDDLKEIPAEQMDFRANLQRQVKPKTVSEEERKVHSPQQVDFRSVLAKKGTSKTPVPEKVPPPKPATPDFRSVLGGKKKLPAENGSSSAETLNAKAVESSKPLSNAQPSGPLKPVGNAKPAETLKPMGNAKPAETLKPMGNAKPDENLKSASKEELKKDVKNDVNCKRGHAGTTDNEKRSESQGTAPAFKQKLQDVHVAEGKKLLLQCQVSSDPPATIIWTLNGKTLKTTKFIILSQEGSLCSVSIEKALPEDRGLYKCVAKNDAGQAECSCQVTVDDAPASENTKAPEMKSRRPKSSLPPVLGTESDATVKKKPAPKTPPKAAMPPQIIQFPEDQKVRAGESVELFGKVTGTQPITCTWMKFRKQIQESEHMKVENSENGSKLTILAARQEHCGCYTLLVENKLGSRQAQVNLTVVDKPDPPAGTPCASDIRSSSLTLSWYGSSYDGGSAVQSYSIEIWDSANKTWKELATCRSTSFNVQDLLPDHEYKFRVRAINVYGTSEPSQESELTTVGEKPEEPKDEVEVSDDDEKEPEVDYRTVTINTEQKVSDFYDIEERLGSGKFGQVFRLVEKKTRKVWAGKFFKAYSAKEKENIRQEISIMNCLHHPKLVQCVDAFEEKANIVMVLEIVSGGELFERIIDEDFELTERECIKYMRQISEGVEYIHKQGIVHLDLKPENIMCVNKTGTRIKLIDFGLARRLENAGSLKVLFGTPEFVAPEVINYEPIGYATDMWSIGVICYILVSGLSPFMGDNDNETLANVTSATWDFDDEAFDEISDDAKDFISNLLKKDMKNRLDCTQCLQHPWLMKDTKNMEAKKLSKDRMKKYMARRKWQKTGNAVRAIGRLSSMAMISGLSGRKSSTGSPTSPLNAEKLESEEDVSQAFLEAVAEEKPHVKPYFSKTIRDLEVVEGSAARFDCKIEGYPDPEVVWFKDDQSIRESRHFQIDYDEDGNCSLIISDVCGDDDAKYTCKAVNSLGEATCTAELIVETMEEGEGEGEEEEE
Sodium-dependent dopamine transporter (Homo sapiens), sequence (Q01959 whole entry): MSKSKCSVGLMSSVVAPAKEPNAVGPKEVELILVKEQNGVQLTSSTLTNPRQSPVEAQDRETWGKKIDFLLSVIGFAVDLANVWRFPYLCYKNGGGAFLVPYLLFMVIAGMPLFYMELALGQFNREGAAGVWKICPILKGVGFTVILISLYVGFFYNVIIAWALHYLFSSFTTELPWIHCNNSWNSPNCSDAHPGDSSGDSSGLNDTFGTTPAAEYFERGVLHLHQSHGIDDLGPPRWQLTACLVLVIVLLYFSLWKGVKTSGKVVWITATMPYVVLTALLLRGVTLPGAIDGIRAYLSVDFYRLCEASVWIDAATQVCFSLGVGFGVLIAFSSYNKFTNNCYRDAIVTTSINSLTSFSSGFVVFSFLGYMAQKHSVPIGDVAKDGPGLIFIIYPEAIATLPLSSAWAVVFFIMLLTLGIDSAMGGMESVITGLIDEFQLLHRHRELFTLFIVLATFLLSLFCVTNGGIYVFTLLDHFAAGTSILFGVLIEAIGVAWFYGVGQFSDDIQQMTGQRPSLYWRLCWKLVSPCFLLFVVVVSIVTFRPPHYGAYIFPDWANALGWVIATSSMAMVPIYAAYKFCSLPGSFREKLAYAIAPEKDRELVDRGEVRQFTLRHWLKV
Tyrosine 3-monooxygenase (Homo sapiens), sequence (P07101 whole entry): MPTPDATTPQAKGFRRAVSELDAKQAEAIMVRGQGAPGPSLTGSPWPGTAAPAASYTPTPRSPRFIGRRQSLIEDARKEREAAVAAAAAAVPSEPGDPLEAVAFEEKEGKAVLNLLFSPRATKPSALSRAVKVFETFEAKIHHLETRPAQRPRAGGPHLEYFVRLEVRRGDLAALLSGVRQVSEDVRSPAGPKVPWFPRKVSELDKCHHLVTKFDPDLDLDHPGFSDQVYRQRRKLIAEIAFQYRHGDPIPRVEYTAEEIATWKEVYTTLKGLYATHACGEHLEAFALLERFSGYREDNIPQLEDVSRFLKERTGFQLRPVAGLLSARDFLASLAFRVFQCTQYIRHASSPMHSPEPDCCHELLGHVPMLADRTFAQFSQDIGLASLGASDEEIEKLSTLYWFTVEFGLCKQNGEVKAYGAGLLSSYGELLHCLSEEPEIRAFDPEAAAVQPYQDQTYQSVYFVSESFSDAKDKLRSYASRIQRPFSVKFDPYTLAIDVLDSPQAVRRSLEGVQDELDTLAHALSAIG
Prostaglandin G/H synthase 2 (Homo sapiens), sequence (P35354 whole entry): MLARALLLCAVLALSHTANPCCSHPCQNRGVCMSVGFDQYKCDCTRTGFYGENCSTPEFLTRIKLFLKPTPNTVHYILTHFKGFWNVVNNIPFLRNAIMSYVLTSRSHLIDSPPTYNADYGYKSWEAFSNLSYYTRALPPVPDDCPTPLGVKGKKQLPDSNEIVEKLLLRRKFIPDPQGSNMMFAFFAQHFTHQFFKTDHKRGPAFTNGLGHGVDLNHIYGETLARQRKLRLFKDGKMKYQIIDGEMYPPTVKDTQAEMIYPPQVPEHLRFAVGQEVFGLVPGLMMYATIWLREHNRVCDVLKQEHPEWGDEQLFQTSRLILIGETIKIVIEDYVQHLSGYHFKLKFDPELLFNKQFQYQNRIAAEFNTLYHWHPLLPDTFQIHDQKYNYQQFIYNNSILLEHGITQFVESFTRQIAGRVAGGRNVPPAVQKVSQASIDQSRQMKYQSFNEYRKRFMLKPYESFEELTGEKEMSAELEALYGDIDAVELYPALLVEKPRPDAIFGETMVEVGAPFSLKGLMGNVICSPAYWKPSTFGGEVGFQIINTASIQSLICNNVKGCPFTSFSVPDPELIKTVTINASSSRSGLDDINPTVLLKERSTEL

COc1ccc2cc(OCC3(C(=O)O)CN(C(=O)c4ccc(F)cc4)C3)ccc2c1 [PF-04418948]
inactive: inhibition [1] 2% | inhibition [2] 11% | inhibition [3] -10% | residual activity [4] 84% | residual activity [5] 97%
